Reference: US8410170B2, “Use of isothiocyanates compounds in treating prostatic diseases and skin cancer” (Wuxi JC Pharmaceutical Technology Co., Ltd., priority 2005, dated 2013)
Where a name gives a salt, the structure may show the parent alone.

Assays:
[1] = tested on: xenograft B16 mouse tumor; settings: CTX 20 mg/kg/d i.p., 15 days
Description: The B16 mouse melanoma cells at exponential growth phase were suspended in PBS. […] Adjusted the suspension to a cell concentration of approximately 1×10^7/ml. 0.2 ml of the suspension were transplanted subcutaneously into right axillary subcutis for passaging.
Under sterile condition the xenograft B16 mouse tumor in mice was stripped from axillary subcutis. After cutting by scissors, the tumor with saline (1:3) was ground in a glass homogenizer. Monocell suspension was made with saline. […] Then adjusted the suspension to a cell density of approximately 1×10^7/ml with saline. 0.2 ml were transplanted subcutaneously into right axillary subcutis of each mouse. After transplanting, randomly divided the mouse into 5 groups, 12 each.
Tumors were taken out, sizes and weights were measured, and the percent of inhibitions were calculated.

[2] = tested on: non-bacterial prostatitis; test: Therapeutic effects on non-bacterial prostatitis (Xiaozhiling injection into prostate); type: in vivo, SD rats; design: Histopathological score of prostatitis, Overall Average X ± SD: scale not given here
Description: Fifty-five male SD rats were randomly divided into 6 groups, 9 each, except the negative control group for which 10 animals were used. All animals from group 1 to 6 were anesthetized by injection of ketamine under sterile conditions and incised around 1.5 cm with a sterilized surgery scalpel at middle of abdomen. Animals in Group 1 were injected penicillin to prevent infection, and given distill water, 10 ml/kg, once a day, 5 times a week for 5 weeks. Groups from 2 to 6 injected 25% Xiaozhiling into left and right lobes of prostate, 0.1 ml for each lobe and sew the muscle and skin with #1 silk thread. The animals were then given penicillin to prevent infectious. Group 2 was served as negative control group in which animals were treated with distill water by gavage 24 hrs after the Xiaozhiling injection, once a day, 5 times a week for 5 weeks. Group 3 was served as positive control group in which animals were treated with GENURIN by gavage 24 hrs after the Xiaozhiling injection at dose of 60 mg/kg, once a day, 5 times a week (escaping weekend) for 5 weeks. […] On the last dosing day, urine samples from different groups that covered periods of 1, 2 and 3 hrs were collected.
Twenty-four hrs after the last dose, the animals were euthanized and weighed. Volume and weight of prostate were measured. The averages of the prostate weight/volume and organ coefficient (average weight of prostate/average of body weight) were calculated, and statistical analysis performed (t test).
(§1) Prostate tissues of animals from different groups were embedded with paraffin. The tissue sections were stained with H&E for histpathological examination by an anatomical pathologist.

GSTP1 = test: Western blot to detect GSTP1 protein in LNCaP cells; type: cell-based, human; settings: LNCaP cells exposed 24 hrs
Description: Western blot to detect GSTP1 protein (FIG. 1): […] The cells were harvested, washed and total cellular proteins were extracted as described previously (Wang, […], et al. […] Cancer Res 61(20): 7544-51, 2001). Fifty μg cellular extracts were separated on a SDS-PAGE, electro-transferred to nitrocellulose filters, and immunoblotted initially with antibodies against GSTP1. The same membranes were stripped and re-probed with β-actin for loading control. The result was recorded by ECL films.

[3] = tested on: human androgen independent prostate cancer PC-3 cells; test: Xenograft of PC-3 in nude mice; type: in vivo, BALB/c nude mice; settings: for Inhibition of PC-3 tumor growth: at terminal, diet containing 8 μM/g for 30 days
Excerpt: Immunodeficient BALB/c nude mice, male, 5 weeks old, were purchased from Animal Center, Chinese Academy of Sciences, Shanghai, China. The animals were housed in an SPF animal lab. Human androgen independent prostate cancer PC-3 cells, in the form of a pellet (approximately 1×10^6 cells per animal), were mixed with a 50% volume of Matrigel and implanted s.c. in the flank of the animal. Twenty-four hrs after the transplant, the mice were randomly divided into two groups, eight animal each. One group served as untreated control and fed with regular AIN76 diet, and another one as treatment group in which AIN76 diet containing 8 μM/g of PEITC-NAC was provided. The animals were treated for 30 days, and tumor incidence and size were measured at day 7, 10, 22. Twenty-four hrs after the last administration, animals were euthanized, and body and tumors were weighted. Western blot was used to follow the possible change of AR expression.

androgen-induced BPH = test: Therapeutic effects on BPH: Test Two (castrated rats, testosterone propionate; weights and histopathology); type: in vivo, SD rats; design: Histopathological score of BPH, Average X ± SD: scale not given here
Description: Thirty-six male SD rats were randomly divided into 4 groups, nine each. Group 1 was served as blank control group (pseudo-surgery control group) in which animals were under the same surgical procedures except no testis was sectioned and fed normally. Groups from 2 to 4 were served as treatment groups in which all animals were anesthetized using ketamine and castrated by removing both testises under sterile conditions. After the surgery, the penicillin was injected to prevent the animals from infection. One week later, the testosterone propionate was injected subcutaneously at dose of 5 mg/kg, once a day for a month. […] Group 3 was served as positive control group in which animals were given Proscar by gavage at dose of 0.1 mg/rat/day for a month beginning on the same day that the testosterone propionate was injected.
Twenty-four hrs after the last dose, the animals were euthanized and weighed. Volume and weight of prostate were measured. The averages of prostate volume/weight and organ coefficient (average weight of prostate/average of body weight) were calculated, and statistical analysis performed (t test).
as §1

BPH = test: Therapeutic effects on BPH: Test One (castrated rats, testosterone propionate); type: in vivo, SD rats; settings: estradiol 0.1 mg/rat s.c., one month
Description: Sixty male SD rats were randomly divided into 6 groups, ten each. The animals were anesthetized using ketamine and castrated by removing testis under sterile conditions. After the surgery, the penicillin was injected to prevent the animals from infection. One week later, the testosterone propionate was injected subcutaneously at dose of 1 mg/rat for a month, once a day. Group 1 was served as a negative control group, and the animals of group 1 were given saline orally without any active pharmaceutical ingredient for a month beginning on the same day the testosterone propionate was injected. Group 2 was served as positive control group in which animals were given estradiol subcutaneously at a dose of 0.1 mg/rat for a month beginning on the same day the testosterone propionate was injected. Groups from 3 to 6 was served as drug treatment groups in which animals were given tested articles on the same day the testosterone propionate was injected.
Twenty-four hrs after the last dosage, the animals were euthanized and weighed. Volume and weight of prostate were measured. The averages of volume/weight and organ coefficient (average weight of prostate/average of body weight) were calculated, and statistical analysis performed (t test).

[4] = GENURIN 60 mg/kg gavage, 5 weeks
[5] = GENURIN 60 mg/kg, last dosing day
[6] = Proscar 0.5 mg/kg gavage, one month

O=P1(N(CCCl)CCCl)NCCCO1 (centres unmarked) [CTX, Cyclophosphamide, reference compound]
Average of Tumor Weight [1]: 0.76 ± 0.41 g | Changes in Body Weight [1]: 5.07 ± 2.64 g | Inhibition [1]: 66.23%

Cc1c(-c2ccccc2)oc2c(C(=O)OCCN3CCCCC3)cccc2c1=O [GENURIN, Flavoxate Hydrochloride, reference compound]
Average Volume of Prostate [2, 4]: 0.69 ± 0.10 cm^3 | Average Weight of Prostate [2, 4]: 0.71 ± 0.09 g | Inhibition of Organ-coefficient [2, 4]: 24.62% | Organ Coefficient [2, 4]: 0.196 ± 0.03 % | Bleeding: no. of animals with score 0 ([2]; GENURIN 60 mg/kg, 9 animals): 6 | Bleeding: no. of animals with score + ([2]; GENURIN 60 mg/kg, 9 animals): 3 | Bleeding: no. of animals with score ++ ([2]; GENURIN 60 mg/kg, 9 animals): 0 | Bleeding: no. of animals with score +++ ([2]; GENURIN 60 mg/kg, 9 animals): 0 | Chronic Inflammatory Infiltration: no. of animals with score 0 ([2]; GENURIN 60 mg/kg, 9 animals): 5 | Chronic Inflammatory Infiltration: no. of animals with score + ([2]; GENURIN 60 mg/kg, 9 animals): 4 | Chronic Inflammatory Infiltration: no. of animals with score ++ ([2]; GENURIN 60 mg/kg, 9 animals): 0 | Chronic Inflammatory Infiltration: no. of animals with score +++ ([2]; GENURIN 60 mg/kg, 9 animals): 0 | Congestion: no. of animals with score 0 ([2]; GENURIN 60 mg/kg, 9 animals): 4 | Congestion: no. of animals with score + ([2]; GENURIN 60 mg/kg, 9 animals): 5 | Congestion: no. of animals with score ++ ([2]; GENURIN 60 mg/kg, 9 animals): 0 | Congestion: no. of animals with score +++ ([2]; GENURIN 60 mg/kg, 9 animals): 0 | Edema: no. of animals with score 0 ([2]; GENURIN 60 mg/kg, 9 animals): 6 | Edema: no. of animals with score + ([2]; GENURIN 60 mg/kg, 9 animals): 2 | Edema: no. of animals with score ++ ([2]; GENURIN 60 mg/kg, 9 animals): 1 | Edema: no. of animals with score +++ ([2]; GENURIN 60 mg/kg, 9 animals): 0 | Fibrous Exudation: no. of animals with score 0 ([2]; GENURIN 60 mg/kg, 9 animals): 8 | Fibrous Exudation: no. of animals with score + ([2]; GENURIN 60 mg/kg, 9 animals): 1 | Fibrous Exudation: no. of animals with score ++ ([2]; GENURIN 60 mg/kg, 9 animals): 0 | Fibrous Exudation: no. of animals with score +++ ([2]; GENURIN 60 mg/kg, 9 animals): 0 | Histopathological score of prostatitis, Overall Average X ± SD ([2]; GENURIN 60 mg/kg, 9 animals): 1.83 ± 0.75 | Hyperblastosis: no. of animals with score 0 ([2]; GENURIN 60 mg/kg, 9 animals): 8 | Hyperblastosis: no. of animals with score + ([2]; GENURIN 60 mg/kg, 9 animals): 1 | Hyperblastosis: no. of animals with score ++ ([2]; GENURIN 60 mg/kg, 9 animals): 0 | Hyperblastosis: no. of animals with score +++ ([2]; GENURIN 60 mg/kg, 9 animals): 0 | Inflammatory Infiltration: no. of animals with score 0 ([2]; GENURIN 60 mg/kg, 9 animals): 7 | Inflammatory Infiltration: no. of animals with score + ([2]; GENURIN 60 mg/kg, 9 animals): 2 | Inflammatory Infiltration: no. of animals with score ++ ([2]; GENURIN 60 mg/kg, 9 animals): 0 | Inflammatory Infiltration: no. of animals with score +++ ([2]; GENURIN 60 mg/kg, 9 animals): 0 | urine, 1 h Period [2, 5]: 6.2 ± 1.3 mL | urine, 2 h Period [2, 5]: 7.9 ± 1.9 mL | urine, 3 h Period [2, 5]: 8.8 ± 1.2 mL

CC(=O)NC(CSC(=S)NCCc1ccccc1)C(=O)O (centres unmarked) [PEITC-NAC, N-acetylcysteine conjugate of phenethyl isothiocyanate]
expression of GSTP1 (Western blot) (GSTP1): effectively induce | Incidence ([3]; at terminal (30 days)): 87.5% | No. of Animals with Tumor ([3]; at terminal (30 days)): 7 | No. of Animals without Tumor ([3]; at terminal (30 days)): 1 | Inhibition of PC-3 tumor growth [3]: 53.3% | Incidence ([3]; day 7): 75% | No. of Animals without Tumor ([3]; day 7): 2 | No. of Animals with Tumor ([3]; day 7 after tumor implantation, diet containing 8 μM/g, 8 animals): 6 | Incidence ([3]; day 10): 75% | No. of Animals with Tumor ([3]; day 10): 6 | No. of Animals without Tumor ([3]; day 10): 2 | Incidence ([3]; day 22): 87.5% | No. of Animals with Tumor ([3]; day 22): 7 | No. of Animals without Tumor ([3]; day 22): 1

CC(C)(C)NC(=O)[C@H]1CC[C@H]2[C@@H]3CC[C@H]4NC(=O)C=C[C@]4(C)[C@H]3CC[C@]12C [Proscar]
Average Body Weight (androgen-induced BPH; Proscar 0.5 mg/kg (0.1 mg/rat/day) gavage, one month): 340 ± 30.5 g | Average Volume of Prostate (androgen-induced BPH; [6]): 1.61 ± 0.16 cm^3 | Average Weight of Prostate (androgen-induced BPH; [6]): 1.30 ± 0.12 g | Inhibition of Organ Coefficient (androgen-induced BPH; [6]): 11.63% | Organ Coefficient (androgen-induced BPH; [6]): 0.38 ± 0.05% | Acinar Density: no. of animals with score 0 (androgen-induced BPH; Proscar, 9 animals): 1 | Acinar Density: no. of animals with score + (androgen-induced BPH; Proscar, 9 animals): 2 | Acinar Density: no. of animals with score ++ (androgen-induced BPH; Proscar, 9 animals): 6 | Acinar Density: no. of animals with score +++ (androgen-induced BPH; Proscar, 9 animals): 0 | Connective tissue proliferation, or papillary hyperplasia: no. of animals with score 0 (androgen-induced BPH; Proscar, 9 animals): 8 | Connective tissue proliferation, or papillary hyperplasia: no. of animals with score + (androgen-induced BPH; Proscar, 9 animals): 1 | Connective tissue proliferation, or papillary hyperplasia: no. of animals with score ++ (androgen-induced BPH; Proscar, 9 animals): 0 | Connective tissue proliferation, or papillary hyperplasia: no. of animals with score +++ (androgen-induced BPH; Proscar, 9 animals): 0 | Enlargement of Lumen of Gland: no. of animals with score 0 (androgen-induced BPH; Proscar, 9 animals): 3 | Enlargement of Lumen of Gland: no. of animals with score + (androgen-induced BPH; Proscar, 9 animals): 3 | Enlargement of Lumen of Gland: no. of animals with score ++ (androgen-induced BPH; Proscar, 9 animals): 3 | Enlargement of Lumen of Gland: no. of animals with score +++ (androgen-induced BPH; Proscar, 9 animals): 0 | Histopathological score of BPH, Average X ± SD (androgen-induced BPH; Proscar, 9 animals): 3.33 ± 1.11 | Secretions of Gland: no. of animals with score 0 (androgen-induced BPH; Proscar, 9 animals): 5 | Secretions of Gland: no. of animals with score + (androgen-induced BPH; Proscar, 9 animals): 2 | Secretions of Gland: no. of animals with score ++ (androgen-induced BPH; Proscar, 9 animals): 2 | Secretions of Gland: no. of animals with score +++ (androgen-induced BPH; Proscar, 9 animals): 0 | lumen of prostatic gland and secretary materials in the lumen, versus untreated BPH tissues (typical slide) (androgen-induced BPH; Proscar, FIG. 6.3): reduced | density of prostatic acinars, versus untreated BPH tissues (typical slide) (androgen-induced BPH; Proscar, FIG. 6.4): reduced

C[C@]12CC[C@@H]3c4ccc(O)cc4CC[C@H]3[C@@H]1CC[C@@H]2O [estradiol, reference compound]
Average Weight of Prostate (BPH): 0.73 grams | Organ Coefficient (BPH): 0.23%

N-acetylcysteine conjugate of phenethyl isothiocyanate [PEITC-NAC]
Inhibition of PC-3 tumor growth [3]: 53.3%
